Measured values published in patent US20240217988A1, “ESTROGEN RECEPTOR ANTAGONIST” (Shenzhen Forward Pharmaceuticals Co., Limited, priority 2021, published 2024).
pIC50: −log10 of the molar value.

Assays:
GST-ERα-LBD = GST-ERα-LBD (Homo sapiens (Human), UniProt P03372); assay: ERα TR-FRET test; type: biochemical; conditions: estradiol final concentration 1.5 nM, biotin-SRC2
Procedure: 1× Tris-HCl (Sigma, PHG0002) protein buffer was prepared and mixed for later use. The compound to be detected was prepared into a stock solution with a concentration of 2 mM and then subjected to serial 3-fold gradient dilution, resulting in a total of 10 concentrations.
Preparation of 1× protein mixed solution: firstly, 2× GST-ERα-LBD (Invitrogen, A15677)/MAb anti-GST-Eu (Cisbio, 61GSTKLA) mixed solution was prepared according to the following table.
2× biotin-SRC2/streptavidin-XL665 (Cisbio, 610SAXLA) mixed solution was prepared.
The above 2× GST-NR-LBD/ MAb anti-GST-Eu solution and 2× biotin-SRC2/streptavidin-XL665 solution were uniformly mixed at a volume ratio of 1:1; and the 1× protein mixed solution was added to each well of a 384-well plate, with 20 μL being added per well, the 384-well plate was put into a centrifuge and centrifuged at room temperature at 1000 rpm for 10 seconds, and it was taken out, then left to stand at room temperature for 3 h, and then read by EnVision multifunctional microplate reader.
The inhibition rate was calculated according to the following formula: […]
The data were imported into Graphpad Prism, and Log(agonist) vs. response-variable slope was used for curve fitting.
Y=Bottom+(Top−Bottom)/(1+10^((LogEC50−X)*HillSlope)) Fitting formula

[1] = system: Human breast cancer cells MCF-7; assay: MCF-7 cell proliferation experiment; type: cell-based; conditions: Homo sapiens, MCF7; MCF-7 cells, 72 hours, Cell Titer-Glo
Procedure: Test Example 2: MCF-7 Cell Proliferation Experiment
Human breast cancer cells MCF-7 (HTB-22, purchased from ATCC) were inoculated into a 96-well plate. The culture medium was an MEM (Hyclone, SH30024.01B) culture medium containing 10% of FBS (Gibco, 10099-141), 1% of pyruvic acid (Sigma, S8636), and 1% of nonessential amino acid (Sigma, M7145), and the inoculation density was 4,000 cells/well. The cells were cultured at 37° C., 5% CO2. The compound was prepared into a 20 mM stock solution, which was subjected to gradient dilution to a final concentration of […] with 100% DMSO (Sigma, D2650) and then diluted 20 folds with a culture medium containing 2% of FBS. After 24 hours of culture, the culture medium was removed, 90 μL of a culture medium containing 2% of FBS and 10 μL of drug were added to each well, while 10 μL of DMSO was added to the control group, and they were gently shaken and mixed. The blank group only contained 100 μL of 2% FBS culture medium. They were placed in an incubator and cultured at 37° C., 5% CO2. After 72 hours, 50 μL of mixed Cell Titer-Glo (Promega, G7571) was added. They were shaken and mixed uniformly, and placed at room temperature for 10 min. The chemiluminescence signal value was determined. The negative control was 0.5% DMSO well.

ERα = ERα (Homo sapiens (Human), UniProt P03372); assay: Degradation effect of compound on ERα (ERα DuoSet IC ELISA in MCF-7 cells); type: cell-based; conditions: 24 h with compound, read-out: IC50 value of ERα degradation by compound
ERα, sequence (P03372 whole entry): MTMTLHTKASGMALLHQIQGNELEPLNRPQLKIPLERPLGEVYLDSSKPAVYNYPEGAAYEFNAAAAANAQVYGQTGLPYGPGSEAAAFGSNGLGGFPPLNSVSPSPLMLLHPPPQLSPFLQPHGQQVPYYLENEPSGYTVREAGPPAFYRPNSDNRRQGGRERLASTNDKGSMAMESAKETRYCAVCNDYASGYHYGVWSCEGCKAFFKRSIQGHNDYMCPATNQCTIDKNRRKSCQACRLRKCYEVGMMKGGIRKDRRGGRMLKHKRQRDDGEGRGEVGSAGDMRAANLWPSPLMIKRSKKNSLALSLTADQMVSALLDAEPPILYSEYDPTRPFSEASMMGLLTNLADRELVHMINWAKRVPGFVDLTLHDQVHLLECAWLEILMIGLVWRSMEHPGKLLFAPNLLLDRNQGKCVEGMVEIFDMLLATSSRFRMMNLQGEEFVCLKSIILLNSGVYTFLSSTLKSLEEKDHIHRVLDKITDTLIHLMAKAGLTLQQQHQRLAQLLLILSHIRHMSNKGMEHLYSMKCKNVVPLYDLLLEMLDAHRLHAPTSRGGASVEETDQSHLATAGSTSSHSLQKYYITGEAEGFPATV
Procedure: In this test example, ERα DuoSet IC ELISA Kit (R&D, DYC5715) was used to detect the degradation effect of the compound on ERα. On the first day of the experiment, human breast cancer cells MCF-7 (the source was as above) were inoculated into a 24-well plate. The culture medium was an MEM culture medium containing 10% of activated-carbon-treated FBS (Tocyto, UT61204), 1% of pyruvic acid and 1% of nonessential amino acid. The inoculation density was 150,000 cells/well. The cells were cultured at 37° C., 5% CO2 for 24 h.
On the second day of the experiment, the compound to be tested was diluted in gradient and added to a 24-well plate containing cells. The cells were cultured for 24 h at 37° C., 5% CO2. ERα capture antibody was diluted to 1 μg/ml with PBS (Corning, 21-040-CVR) and added to a 96-well plate at 100 μL/well, and the plate was […] coated overnight at room temperature.
On the third day of the experiment, the coated 96-well plate was washed three times with PBS, 300 μL of a blocking solution (R&D, DY995) was added to each well, and the plate was blocked at room temperature for 1 h. The 24-well plate was washed once with PBS, and the residual liquid was sucked off. […] The diluted cell lysate was taken and added to the blocked 96-well plate, with 100 μL per well, and incubated at room temperature for 2 h. The plate was washed three times with a washing solution (R&D, WA126), and a primary antibody was then added. After incubation for 1 h, the 96-well plate was washed four times, a secondary antibody was added, and incubation was carried out at room temperature in the dark for 30 min. The plate was washed four times with the washing solution, and TMB (R&D, DY999) was added. After 15 minutes of development, the reaction was terminated with a stop solution (R&D, DY994), and the light absorption at 450 nm was read.

[2] = Stability in human liver microsomes in vitro; type: in vitro ADME; conditions: human liver microsomes; for half-life: microsome protein 1 mg/mL working solution, NADPH; for CLint scaled: scaled to liver; for microsomal CLint: read-out: CLint(mic)
Procedure: Test Example 4: Test for Stability in Human Liver Microsomes In Vitro Eight 96-well incubation plates were prepared and named [NT], Blank60 and NCF60, respectively. […] No test compound or control compound was added to Blank60 plate, and samples were taken after incubation for 60 min. NCF60 plate was incubated with a potassium phosphate buffer instead of an NADPH regeneration system solution (Sigma, N0505) for 60 min. […] Only the microsome working solution was added to Blank60 plate, and the incubation plates Blank60, T5, T15, T30, T45 and T60 except T0 and NCF60 were then placed in a water bath at 37° C. and pre-incubated for about 10 min. To the samples of T0 plate, 600 μL of a stop solution (acetonitrile:methanol (95:5, v/v) solution containing 100 ng/mL of tolbutamide (Sigma, T0891)) was added first, and the NADPH regeneration system working solution was then added. 98 μL of a potassium phosphate buffer was added to each well of NCF60 plate and incubated for 60 min. After the pre-incubation in the incubation plates Blank60, T5, T15, T30, T45 and T60 was completed, 98 μL of the NADPH regeneration system working solution was added to each sample well to initiate the reaction. After an appropriate incubation time (such as 5, 15, 30, 45 and 60 min), 600 μL of a stop solution was added to each sample well and the control sample well in Blank60, […] the reaction. All the sample plates were shaken uniformly and centrifuged at 3220×g for 20 min. 200 μL of test sample supernatant was separately taken and diluted in 200 μL of an aqueous solution containing 0.3% formic acid for LC-MS/MS analysis, and 100 μL of control sample supernatant was taken and diluted in 300 μL of pure water for LC-MS/MS analysis. Calculation was performed according to the following formula: [formula] [formula] [formula] [formula] [formula] [formula]

GST-ERα-LBD, sequence (P03372 311-547): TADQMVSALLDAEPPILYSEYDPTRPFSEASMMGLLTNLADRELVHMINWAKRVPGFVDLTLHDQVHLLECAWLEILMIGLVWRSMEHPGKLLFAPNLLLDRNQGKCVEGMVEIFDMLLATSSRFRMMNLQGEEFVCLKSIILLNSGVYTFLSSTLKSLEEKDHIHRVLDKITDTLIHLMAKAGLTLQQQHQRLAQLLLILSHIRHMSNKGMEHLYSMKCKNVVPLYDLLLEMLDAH

Row | Compound | pIC50 (GST-ERα-LBD) | pIC50 [1] | DC50 (ERα) | half-life [2] | CLint scaled [2] | microsomal CLint [2]
1 | COc1cc(NC2CN(CCCF)C2)ccc1[C@@H]1c2ccc3[nH]c(=O)oc3c2C[C@@H](C)N1CC(F)(F)F [Example 25, (6S,8R)-6-(4-((1-(3-fluoropropyl)azetidin-3-yl)amino)-2-methoxyphenyl)-8-methyl-7-(2,2,2-trifluoroethyl)-6,7,8,9-6,7,8,9-tetrahydrooxazolo[5,4-f]isoquinolin-2(3H)-one] | 7.94 | 9.62 | 340 pM | 1.76 h | 8.4 mL/min/kg | 9.6 µL/min/mg
2 | COc1cc(NC2CN(CCCF)C2)ccc1[C@@H]1c2ccc3[nH]c(=O)oc3c2C[C@@H](C)N1CC(C)(F)F [Example 32] | 7.83 | 9.41 | 420 pM | 1.71 h | 9 mL/min/kg | 9.8 µL/min/mg
3 | C[C@@H]1Cc2c(ccc3[nH]c(=O)oc23)[C@@H](c2c(F)cc(OC3CN(CCCF)C3)cc2F)N1CC(F)(F)F [Example 12, (6S,8R)-6-(2,6-difluoro-4-((1-(3-fluoropropyl)azetidin-3-yl)oxy)phenyl)-8-methyl-7-(2,2,2-trifluoroethyl)-6,7,8,9-tetrahydrooxazolo[5,4-f]isoquinolin-2(3H)-one] | 7.81 | 9.31 | 570 pM | 1.73 h | 8.9 mL/min/kg | 9.8 µL/min/mg
4 | C[C@@H]1Cc2c(ccc3[nH]c(=O)oc23)[C@@H](c2c(F)cc(NC3CN(CCCF)C3)cc2F)N1CC(F)(F)F [Example 10, (6S,8R)-6-(2,6-difluoro-4-((1-(3-fluoropropyl)azetidin-3-yl)amino)phenyl)-8-methyl-7-(2,2,2-trifluoroethyl)-6,7,8,9-tetrahydrooxazolo[5,4-f]isoquinolin-2(3H)-one] | 8.11 | 9.70 | 410 pM | 1.94 h | 8.1 mL/min/kg | 9 µL/min/mg
